Laboratory results reported in patent US9676714B2, “Sulfonylindole derivatives and method for preparing the same” (Daewoong Pharmaceutical Co., Ltd., priority 2013, dated 2017).
pIC50: −log10 of the molar value. Counter-ions that a name gives are not always drawn.

The molecules below were run against T1, proton pump (H+/K+-ATPase) (Sus scrofa, UniProt P19156) (assay: Measurement of inhibitory effects on proton pump (H+/K+-ATPase) activities). Details: hog gastric vesicles, K+-specific H+/K+-ATPase activity, Tris-HCl buffer pH 7.4, 37° C. for 40 minutes, malachite green Pi readout.
T1 construct: Gastric vesicles were prepared from hog stomach via centrifugal separation; from tissue; host or cells: hog stomach (gastric vesicles, method of Rabon et al. 1988)
T1 sequence (P19156 whole entry): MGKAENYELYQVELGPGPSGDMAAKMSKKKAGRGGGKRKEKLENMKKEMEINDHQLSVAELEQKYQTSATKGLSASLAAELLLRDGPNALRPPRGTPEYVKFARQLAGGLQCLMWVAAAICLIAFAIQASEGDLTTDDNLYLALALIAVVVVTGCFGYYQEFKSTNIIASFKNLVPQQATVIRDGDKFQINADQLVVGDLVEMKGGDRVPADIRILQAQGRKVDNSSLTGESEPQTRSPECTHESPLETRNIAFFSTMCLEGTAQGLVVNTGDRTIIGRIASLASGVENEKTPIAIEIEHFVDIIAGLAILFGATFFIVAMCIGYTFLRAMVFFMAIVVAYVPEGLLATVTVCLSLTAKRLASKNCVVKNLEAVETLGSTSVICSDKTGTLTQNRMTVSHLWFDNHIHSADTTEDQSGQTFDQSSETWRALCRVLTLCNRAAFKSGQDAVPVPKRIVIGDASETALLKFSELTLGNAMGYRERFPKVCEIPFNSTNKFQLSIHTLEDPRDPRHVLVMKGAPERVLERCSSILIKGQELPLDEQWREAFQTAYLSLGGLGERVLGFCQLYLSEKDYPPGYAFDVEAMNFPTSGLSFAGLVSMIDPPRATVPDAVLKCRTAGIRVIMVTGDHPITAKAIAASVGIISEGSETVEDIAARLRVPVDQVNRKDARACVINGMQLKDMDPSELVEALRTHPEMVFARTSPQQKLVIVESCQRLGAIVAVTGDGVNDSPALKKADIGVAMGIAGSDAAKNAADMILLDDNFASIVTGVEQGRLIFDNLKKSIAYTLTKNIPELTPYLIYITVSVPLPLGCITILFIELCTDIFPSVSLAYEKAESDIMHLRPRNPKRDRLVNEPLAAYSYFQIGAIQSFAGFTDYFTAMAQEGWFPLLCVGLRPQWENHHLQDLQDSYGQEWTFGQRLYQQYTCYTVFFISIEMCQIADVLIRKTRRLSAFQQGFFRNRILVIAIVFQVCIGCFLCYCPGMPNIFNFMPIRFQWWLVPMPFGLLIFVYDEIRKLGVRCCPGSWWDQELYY
T1 sequence (P18434 whole entry partner): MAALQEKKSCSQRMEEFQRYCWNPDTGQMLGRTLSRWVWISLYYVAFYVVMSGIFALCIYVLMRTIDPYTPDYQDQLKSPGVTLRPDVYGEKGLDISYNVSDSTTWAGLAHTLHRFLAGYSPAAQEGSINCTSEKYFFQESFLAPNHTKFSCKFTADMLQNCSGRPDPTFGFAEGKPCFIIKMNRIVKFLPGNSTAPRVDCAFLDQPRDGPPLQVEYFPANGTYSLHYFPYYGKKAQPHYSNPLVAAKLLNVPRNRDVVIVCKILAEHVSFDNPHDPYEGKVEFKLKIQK
Type: biochemical
Summary of the method: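 Hog gastric vesicles in 60 mmol/l Tris-HCl pH 7.4 with 0.5% DMSO were treated with compounds at room temperature; reaction was started with 10 μl of 10 mmol/l ATP stock. Released Pi was read at 570 nm, K+-specific activity taken as the ±K+ difference. IC50 from 4-parameter logistic fit.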
`COc1ccc(Nc2ccc3c(C(=O)N(C)C)cn(S(=O)(=O)c4cccnc4)c3c2)c(F)c1` [Example 324, 6-((2-fluoro-4-methoxyphenyl)amino)-N,N-dimethyl-1-(pyridin-3-ylsulfonyl)-1H-indol-3-carboxamide] was tested, and the pIC50 was 4.70.
`CN(C)C(=O)c1cn(S(=O)(=O)c2cccnc2)c2cc(Nc3ccc(C(F)(F)F)cc3Cl)ccc12` [Example 325, 6-((2-chloro-4-(trifluoromethyl)phenyl)amino)-N,N-dimethyl-1-(pyridin-3-ylsulfonyl)-1H-indol-3-carboxamide] showed a pIC50 of 4.17.
In the case of `Cc1cc(OC(F)(F)F)ccc1Nc1ccc2c(C(=O)N(C)C)cn(S(=O)(=O)c3cccnc3)c2c1` [Example 326, N,N-dimethyl-6-((2-methyl-4-(trifluoromethoxy)phenyl)amino)-1-(pyridin-3-ylsulfonyl)-1H-indol-3-carboxamide], the pIC50 was 4.43.
`CN(C)C(=O)c1cn(S(=O)(=O)c2cccnc2)c2cc(Nc3ccc(OC(F)(F)F)cc3Cl)ccc12` [Example 327, 6-((2-chloro-4-(trifluoromethoxy)phenyl)amino)-N,N-dimethyl-1-(pyridin-3-ylsulfonyl)-1H-indol-3-carboxamide] showed a pIC50 of 4.40.
With `COc1cc(OC(F)(F)F)ccc1Nc1ccc2c(C(=O)N(C)C)cn(S(=O)(=O)c3cccnc3)c2c1` [Example 328, 6-((2-methoxy-4-(trifluoromethoxy)phenyl)amino)-N,N-dimethyl-1-(pyridin-3-ylsulfonyl)-1H-indol-3-carboxamide] the pIC50 was 5.30.
Work on `Cc1ccc(Nc2ccc3c(C(=O)N(C)C)cn(S(=O)(=O)c4cccnc4)c3c2)c(F)c1F` [Example 329, 6-((2,3-difluoro-4-methylphenyl)amino)-N,N-dimethyl-1-(pyridin-3-ylsulfonyl)-1H-indol-3-carboxamide] yielded a pIC50 of 4.38.
In the case of `Cc1ccc(Nc2ccc3c(C(=O)N(C)C)cn(S(=O)(=O)c4cccnc4)c3c2)c(Cl)n1` [Example 330, 6-((2-chloro-6-methylpyridin-3-yl)amino)-N,N-dimethyl-1-(pyridin-3-ylsulfonyl)-1H-indol-3-carboxamide], the pIC50 was 4.66.
For `CN(C)C(=O)c1cn(S(=O)(=O)c2cccnc2)c2cc(Nc3ccc(Cl)nc3Cl)ccc12` [Example 331, 6-((2,6-dichloropyridin-3-yl)amino)-N,N-dimethyl-1-(pyridin-3-ylsulfonyl)-1H-indol-3-carboxamide], the pIC50 was 4.15.
`COc1ccc(Nc2ccc3c(C(=O)N(C)C)cn(S(=O)(=O)c4cccnc4)c3c2)c(Cl)n1` [Example 332, 6-((2-chloro-6-methoxypyridin-3-yl)amino)-N,N-dimethyl-1-(pyridin-3-ylsulfonyl)-1H-indol-3-carboxamide] showed a pIC50 of 4.22.
Molecule `CNc1cn(S(=O)(=O)c2cccnc2)c2cc(Nc3ccc(C)cc3F)ccc12` [Example 333, N6-(2-fluoro-4-methylphenyl)-N3-methyl-1-(pyridin-3ylsulfonyl)-1H-indol-3,6-diamine hydrochloride] has a pIC50 of 5.23.
Molecule `COC(=O)c1cn(S(=O)(=O)c2cccnc2)c2cc(-c3ccc(OC)cc3)ccc12` [Example 335, methyl 6-(4-methoxyphenyl)-1-(pyridin-3-ylsulfonyl)-1H-indol-3-carboxylate] has a pIC50 of 5.87.
In the case of `COC(=O)c1cn(S(=O)(=O)c2cccnc2)c2cc(-c3ccc(F)nc3)ccc12` [Example 336, methyl 6-(6-fluoropyridin-3-yl)-1-(pyridin-3-ylsulfonyl)-1H-indol-3-carboxylate], the pIC50 was 5.57.
`COC(=O)c1cn(S(=O)(=O)c2ccc(Cl)nc2)c2cc(-c3ccc(F)nc3)ccc12` [Example 337, methyl 1-((6-chloropyridin-3-yl)sulfonyl)-6-(6-fluoropyridin-3-yl)-1H-indol-3-carboxylate] was tested, and the pIC50 was 5.50.
With `COC(=O)c1cn(S(=O)(=O)c2cccnc2)c2cc(-c3ccc(OC)nc3)ccc12` [Example 338, methyl 6-(6-methoxypyridin-3-yl)-1-(pyridin-3-ylsulfonyl)-1H-indol-3-carboxylate] the pIC50 was 5.46.
`CNCc1cn(S(=O)(=O)c2cccc(F)c2)c2cc(Nc3ccc(C)cc3F)cnc12` [Example 339, N-(2-fluoro-4-methylphenyl)-1-((3-fluorophenyl)sulfonyl)-3-((methylamino)methyl)-1H-pyrrolo[3,2-b]pyridin-6-amine hydrochloride] gave a pIC50 of 6.43.
In the case of `CNCc1cn(S(=O)(=O)c2cccc(F)c2)c2cc(Nc3ccc(C)cc3OC(F)(F)F)cnc12` [Example 340, 1-((3-fluorophenyl)sulfonyl)-N-(4-methyl-2-(trifluoromethoxy)phenyl)-3-((methylamino)methyl)-1H-pyrrolo[3,2-b]pyridin-6-amine hydrochloride], the pIC50 was 6.24.
Work on `CNCc1cn(S(=O)(=O)c2cccc(F)c2)c2cc(Nc3ccc(Cl)cc3C)cnc12` [Example 341, N-(4-chloro-2-methylphenyl)-1-((3-fluorophenyl)sulfonyl)-3-((methylamino)methyl)-1H-pyrrolo[3,2-b]pyridin-6-amine hydrochloride] yielded a pIC50 of 6.42.
`CNCc1cn(S(=O)(=O)c2cccc(F)c2)c2cc(Nc3ccc(OC(F)(F)F)cc3OC)cnc12` [Example 343, 1-((3-fluorophenyl)sulfonyl)-N-(2-methoxy-4-(trifluoromethoxy)phenyl)-3-((methylamino)methyl)-1H-pyrrolo[3,2-b]pyridin-6-amine hydrochloride] gave a pIC50 of 5.72.
For `CNCc1cn(S(=O)(=O)c2cccc(F)c2)c2cc(Nc3ccc(Cl)nc3C)cnc12` [Example 344, N-(6-chloro-2-methylpyridin-3-yl)-1-((3-fluorophenyl)sulfonyl)-3-((methylamino)methyl)-1H-pyrrolo[3,2-b]pyridin-6-amine hydrochloride], the pIC50 was 6.01.
With `CNCc1cn(S(=O)(=O)c2cccnc2)c2cc(Nc3ccc(C)cc3Cl)cnc12` [Example 345, N-(2-chloro-4-methylphenyl)-3-((methylamino)methyl)-1-(pyridin-3-ylsulfonyl)-1H-pyrrolo[3,2-b]pyridin-6-amine hydrochloride] the pIC50 was 6.92.
For `CNCc1cn(S(=O)(=O)c2cccnc2)c2cc(Nc3ccc(F)cc3C)cnc12` [Example 346, N-(4-fluoro-2-methylphenyl)-3-((methylamino)methyl)-1-(pyridin-3-ylsulfonyl)-1H-pyrrolo[3,2-b]pyridin-6-amine hydrochloride], the pIC50 was 6.64.
`CNCc1cn(S(=O)(=O)c2cccnc2)c2cc(Nc3ccc(F)cc3Cl)cnc12` [Example 347, N-(2-chloro-4-fluorophenyl)-3-((methylamino)methyl)-1-(pyridin-3-ylsulfonyl)-1H-pyrrolo[3,2-b]pyridin-6-amine hydrochloride] showed a pIC50 of 6.74.
In the case of `CNCc1cn(S(=O)(=O)c2cccnc2)c2cc(Nc3ccc(Cl)cc3C)cnc12` [Example 348, N-(4-chloro-2-methylphenyl)-3-((methylamino)methyl)-1-(pyridin-3-ylsulfonyl)-1H-pyrrolo[3,2-b]pyridin-6-amine hydrochloride], the pIC50 was 6.70.
For `CNCc1cn(S(=O)(=O)c2cccnc2)c2cc(Nc3ccc(Cl)cc3Cl)cnc12` [Example 349, N-(2,4-dichlorophenyl)-3-((methylamino)methyl)-1-(pyridin-3-ylsulfonyl)-1H-pyrrolo[3,2-b]pyridin-6-amine hydrochloride], the pIC50 was 6.55.
In the case of `CNCc1cn(S(=O)(=O)c2cncc(F)c2)c2cc(Nc3ccc(C)cc3Cl)cnc12` [Example 350, N-(2-chloro-4-methylphenyl)-1-((5-fluoropyridin-3-yl)sulfonyl)-3-((methylamino)methyl)-1H-pyrrolo[3,2-b]pyridin-6-amine hydrochloride], the pIC50 was 6.59.
`CNCc1cn(S(=O)(=O)c2cncc(F)c2)c2cc(Nc3ccc(F)cc3C)cnc12` [Example 351, N-(4-fluoro-2-methylphenyl)-1-((5-fluoropyridin-3-yl)sulfonyl)-3-((methylamino)methyl)-1H-pyrrolo[3,2-b]pyridin-6-amine hydrochloride] was tested, and the pIC50 was 6.46.
`CNCc1cn(S(=O)(=O)c2cncc(F)c2)c2cc(Nc3ccc(F)cc3Cl)cnc12` [Example 352, N-(2-chloro-4-fluorophenyl)-1-((5-fluoropyridin-3-yl)sulfonyl)-3-((methylamino)methyl)-1H-pyrrolo[3,2-b]pyridin-6-amine hydrochloride] was tested, and the pIC50 was 6.60.
In the case of `CNCc1cn(S(=O)(=O)c2cccc(F)c2)c2cc(Nc3ccc(C)cc3Cl)ncc12` [Example 353, N-(2-chloro-4-methylphenyl)-1-((3-fluorophenyl)sulfonyl)-3-((methylamino)methyl)-1H-pyrrolo[3,2-c]pyridin-6-amine hydrochloride], the pIC50 was 6.08.
In the case of `CNCc1cn(S(=O)(=O)c2cccc(F)c2)c2cc(Nc3ccc(F)cc3C)ncc12` [Example 354, N-(4-fluoro-2-methylphenyl)-1-((3-fluorophenyl)sulfonyl)-3-((methylamino)methyl)-1H-pyrrolo[3,2-c]pyridin-6-amine hydrochloride], the pIC50 was 6.10.
Work on `CNCc1cn(S(=O)(=O)c2cccc(F)c2)c2cc(Nc3ccc(F)cc3Cl)ncc12` [Example 355, N-(2-chloro-4-fluorophenyl)-1-((3-fluorophenyl)sulfonyl)-3-((methylamino)methyl)-1H-pyrrolo[3,2-c]pyridin-6-amine hydrochloride] yielded a pIC50 of 6.32.
Molecule `CNCc1cn(S(=O)(=O)c2cccc(F)c2)c2cc(Nc3ccc(Cl)nc3Cl)ncc12` [Example 357, N-(2,6-dichloropyridin-3-yl)-1-((3-fluorophenyl)sulfonyl)-3-((methylamino)methyl)-1H-pyrrolo[3,2-c]pyridin-6-amine hydrochloride] has a pIC50 of 6.02.
`CNCc1cn(S(=O)(=O)c2cccc(F)c2)c2cc(Nc3ccc(C)nc3Cl)ncc12` [Example 358, N-(2-chloro-6-methylpyridin-3-yl)-1-((3-fluorophenyl)sulfonyl)-3-((methylamino)methyl)-1H-pyrrolo[3,2-c]pyridin-6-amine hydrochloride] gave a pIC50 of 5.90.
